According to PMC4362760, “JAK2^V617F Drives Mcl-1 Expression and Sensitizes Hematologic Cell Lines to Dual Inhibition of JAK2 and Bcl-xL” (PLoS ONE, 2015):
“And” between values parts separate entries of the source, which are not always exact repeats. Equal entries are not always repeated.

Tests used:
Bcl-w = conditions: cited from earlier work
[1] = tested on: JAK2 V617F-positive and -negative leukemia cell lines; experiment: Drug-drug interaction across leukemia lines: ABT-263 dose shift and Bliss additivity matrix, 72-hr cell viability; format: cell-based; conditions: JAKi-I and ABT-263 0.03-1 μM matrix, 72-hr viability, cell lines carrying JAK2 V617F
Description: Transfection of siRNAs was performed using Lipofectamine RNAiMAX according to the manufacturer’s recommendations. […] Caspase-3 activity was determined using the Caspase-GLO 3/7 Assay (Promega) in parallel with the CellTiter-GLO viability assay (Promega). The data are expressed as Caspase-3/7 activity divided by cell viability.
Caspase-3 activity was determined at each time point. Data are from duplicate samples and are representative of at least three independent experiments. (D-G) Cells were treated in combination as indicated, and cell viability was determined after 72 hr. Data are means of duplicate determinations, and are representative of at least three independent experiments. […] Drugs were added simultaneously, and cell viability was determined after 72 hr. The data were then analyzed using the drug-drug interaction model of Bliss additivity^16 to define dose combinations that were synergistic (values >15; red), antagonistic (values <-15; blue), or without effect (-15<values<15; gray). (I) Model of JAK2/Bcl-2 family inhibitor synergy. JAK2^V617F constitutively phosphorylates and activates STAT3/5, thus enforcing expression of the transcriptional target, Mcl-1. Mcl-1 collaborates with Bcl-XL to oppose apoptosis and support viability.

[2] = tested on: multiple xenograft models; conditions: oral, single agent and in combination with standard of care chemotherapies; cited from earlier work
K562 cells = experiment: Cell viability of K562 cells after siRNA transfection and 72 hr ABT-263; format: cell-based
Description: Transfection of siRNAs was performed using Lipofectamine RNAiMAX according to the manufacturer’s recommendations. […] Caspase-3 activity was determined using the Caspase-GLO 3/7 Assay (Promega) in parallel with the CellTiter-GLO viability assay (Promega). The data are expressed as Caspase-3/7 activity divided by cell viability. […]
Data are means of duplicate samples and are representative of two independent experiments. (XLS) Click here for additional data file.

Wee1 = Wee1 (Homo sapiens, UniProt P30291); experiment: TR-FRET Kinome Wee1; format: binding; conditions: Wee1 Carna Biosciences .015(Subs Conc)
Source text: (§1) (XLS) Click here for additional data file.

MAP2K3 = MAP2K3 (Homo sapiens, UniProt P46734); experiment: TR-FRET Kinome MAP2K3; format: binding; conditions: MAP2K3 Invitrogen .075(Subs Conc)
Source text: as §1

Syk CatDom = biological target: T1, Syk CatDom (Homo sapiens, UniProt P43405); experiment: TR-FRET Kinome Syk CatDom; format: binding; conditions: Syk CatDom .006(Subs Conc)
T1 construct: Syk CatDom
Source text: as §1

DDR1 = DDR1 (Homo sapiens, UniProt Q08345); experiment: TR-FRET Kinome DDR1; format: binding; conditions: DDR1 Invitrogen .01(Subs Conc)
Source text: as §1

MST1 = MST1 (Homo sapiens, UniProt Q13043); experiment: TR-FRET Kinome MST1; format: binding; conditions: MST1 Invitrogen .05(Subs Conc)
Source text: as §1

[3] = tested on: STAT3 and STAT5 tyrosine phosphorylation; experiment: Tyrosine phosphorylation of STAT3 and STAT5 by immunoblotting in leukemia cell lines; format: cell-based
Description: SET-2, HEL, MV4;11, and K562 cells were obtained from ATCC and cultured as recommended. UKE-1 cells were purchased from Walter Fiedler (University of Hamburg). Cell lysates were either prepared using CHAPS lysis buffer (10 mM HEPES, pH 7.4, 150 mM NaCl, 1% CHAPS) or cell extraction buffer containing 1% Triton X-100, 0.1% SDS, and 0.5% deoxycholate. All buffers were supplemented with protease and phosphatase inhibitor cocktails prior to use.
Fig 1 Regulation of Mcl-1 and Bcl-XL by JAK2 ^V617F. […] Tyrosine phoshorylation of STAT3 and STAT5 was determined by immunoblotting. […] Constitutive tyrosine phosphorylation of STAT3 and STAT5 was determined by immunoblotting. […] Data represent means +/- standard deviation for two independent determinations each performed in triplicate. […] (G) Quantification of the data shown in (F). Data are expressed as the ratio of intensity of Mcl-1/β-actin for each time point. […] Data are means of duplicate samples and are representative of two independent experiments.

AMPK = experiment: TR-FRET Kinome AMPK; format: binding, human; conditions: AMPK Invitrogen .1(Subs Conc)
Source text: as §1

cdk2 = cdk2 (Homo sapiens, UniProt P24941); experiment: TR-FRET Kinome cdk2; format: binding; conditions: cdk2 Invitrogen .05(Subs Conc)
Source text: as §1

Akt1 = Akt1 (Homo sapiens, UniProt P31749); experiment: TR-FRET Kinome Akt1; format: binding; conditions: Akt1 Invitrogen .2(Subs Conc)
Source text: as §1

Plk3 = Plk3 (Homo sapiens, UniProt Q9H4B4); experiment: TR-FRET Kinome Plk3; format: binding; conditions: Plk3 Invitrogen .05(Subs Conc)
Source text: as §1

DYRK1B = DYRK1B (Homo sapiens, UniProt Q9Y463); experiment: TR-FRET Kinome DYRK1B; format: binding; conditions: DYRK1B Invitrogen .05(Subs Conc)
Source text: as §1

MST1, sequence (Q13043 whole entry): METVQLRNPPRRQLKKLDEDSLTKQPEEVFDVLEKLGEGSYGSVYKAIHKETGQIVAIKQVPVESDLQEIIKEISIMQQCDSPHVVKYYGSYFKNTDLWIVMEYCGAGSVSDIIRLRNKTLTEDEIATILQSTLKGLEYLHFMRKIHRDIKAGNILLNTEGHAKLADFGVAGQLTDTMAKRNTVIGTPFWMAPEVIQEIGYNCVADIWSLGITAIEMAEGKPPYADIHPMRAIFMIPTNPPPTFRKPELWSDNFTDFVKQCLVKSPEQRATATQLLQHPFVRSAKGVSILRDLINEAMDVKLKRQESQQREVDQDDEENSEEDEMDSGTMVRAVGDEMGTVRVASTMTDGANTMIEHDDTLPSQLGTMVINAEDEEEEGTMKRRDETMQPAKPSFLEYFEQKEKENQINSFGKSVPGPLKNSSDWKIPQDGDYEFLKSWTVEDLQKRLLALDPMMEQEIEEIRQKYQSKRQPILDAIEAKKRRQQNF
DDR1, sequence (Q08345 19-913): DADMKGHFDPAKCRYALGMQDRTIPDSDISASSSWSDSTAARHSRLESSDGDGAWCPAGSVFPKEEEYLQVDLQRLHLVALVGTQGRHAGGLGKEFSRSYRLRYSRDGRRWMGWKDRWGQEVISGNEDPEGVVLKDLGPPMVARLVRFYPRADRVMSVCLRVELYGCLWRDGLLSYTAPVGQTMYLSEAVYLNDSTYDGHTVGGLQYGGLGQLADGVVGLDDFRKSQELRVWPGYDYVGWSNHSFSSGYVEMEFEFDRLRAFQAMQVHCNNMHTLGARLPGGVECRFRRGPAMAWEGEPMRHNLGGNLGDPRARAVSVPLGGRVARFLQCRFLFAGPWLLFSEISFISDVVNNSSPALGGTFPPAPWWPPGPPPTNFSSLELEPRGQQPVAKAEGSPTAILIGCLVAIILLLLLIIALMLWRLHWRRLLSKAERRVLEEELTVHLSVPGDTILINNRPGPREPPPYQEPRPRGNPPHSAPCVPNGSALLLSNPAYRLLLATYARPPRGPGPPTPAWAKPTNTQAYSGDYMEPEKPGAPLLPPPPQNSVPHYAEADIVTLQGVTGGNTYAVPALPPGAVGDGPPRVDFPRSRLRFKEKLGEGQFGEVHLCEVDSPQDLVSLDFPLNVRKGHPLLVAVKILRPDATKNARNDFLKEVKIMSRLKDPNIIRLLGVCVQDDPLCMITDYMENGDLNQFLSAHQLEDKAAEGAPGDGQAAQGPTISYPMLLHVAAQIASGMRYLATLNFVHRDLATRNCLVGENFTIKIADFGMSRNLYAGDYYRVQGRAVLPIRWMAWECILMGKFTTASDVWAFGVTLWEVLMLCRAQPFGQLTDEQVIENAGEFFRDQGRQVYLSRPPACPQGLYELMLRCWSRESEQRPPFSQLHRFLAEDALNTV
Akt1, sequence (P31749 whole entry): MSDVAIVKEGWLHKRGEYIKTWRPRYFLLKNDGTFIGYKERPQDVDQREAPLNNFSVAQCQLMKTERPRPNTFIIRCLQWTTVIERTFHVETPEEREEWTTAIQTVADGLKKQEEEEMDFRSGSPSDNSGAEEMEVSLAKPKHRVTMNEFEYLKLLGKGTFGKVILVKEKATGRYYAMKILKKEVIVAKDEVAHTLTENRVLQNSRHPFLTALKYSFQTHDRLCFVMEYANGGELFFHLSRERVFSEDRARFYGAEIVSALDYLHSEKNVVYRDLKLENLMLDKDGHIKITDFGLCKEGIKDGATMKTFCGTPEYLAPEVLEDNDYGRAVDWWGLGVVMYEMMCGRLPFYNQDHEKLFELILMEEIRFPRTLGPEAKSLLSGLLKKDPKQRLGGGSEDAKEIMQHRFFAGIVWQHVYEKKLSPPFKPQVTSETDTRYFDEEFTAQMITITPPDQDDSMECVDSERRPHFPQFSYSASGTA
DYRK1B, sequence (Q9Y463 whole entry): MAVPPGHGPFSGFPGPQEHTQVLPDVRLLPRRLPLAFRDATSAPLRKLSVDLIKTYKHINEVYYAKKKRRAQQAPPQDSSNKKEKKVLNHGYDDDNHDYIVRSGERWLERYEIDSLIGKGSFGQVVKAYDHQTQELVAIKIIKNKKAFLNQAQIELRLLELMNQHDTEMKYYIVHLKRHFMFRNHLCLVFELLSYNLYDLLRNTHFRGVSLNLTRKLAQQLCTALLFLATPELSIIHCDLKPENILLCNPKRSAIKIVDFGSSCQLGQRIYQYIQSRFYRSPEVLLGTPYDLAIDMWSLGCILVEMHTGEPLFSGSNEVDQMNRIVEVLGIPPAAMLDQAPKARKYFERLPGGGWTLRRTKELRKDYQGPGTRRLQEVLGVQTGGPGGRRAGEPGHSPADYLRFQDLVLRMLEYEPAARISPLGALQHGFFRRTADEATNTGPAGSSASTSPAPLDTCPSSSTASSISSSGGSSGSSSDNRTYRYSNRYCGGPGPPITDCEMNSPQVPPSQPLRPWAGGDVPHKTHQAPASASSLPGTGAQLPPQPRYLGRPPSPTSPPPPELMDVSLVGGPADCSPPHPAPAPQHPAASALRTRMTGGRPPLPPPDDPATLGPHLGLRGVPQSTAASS
Plk3, sequence (Q9H4B4 whole entry): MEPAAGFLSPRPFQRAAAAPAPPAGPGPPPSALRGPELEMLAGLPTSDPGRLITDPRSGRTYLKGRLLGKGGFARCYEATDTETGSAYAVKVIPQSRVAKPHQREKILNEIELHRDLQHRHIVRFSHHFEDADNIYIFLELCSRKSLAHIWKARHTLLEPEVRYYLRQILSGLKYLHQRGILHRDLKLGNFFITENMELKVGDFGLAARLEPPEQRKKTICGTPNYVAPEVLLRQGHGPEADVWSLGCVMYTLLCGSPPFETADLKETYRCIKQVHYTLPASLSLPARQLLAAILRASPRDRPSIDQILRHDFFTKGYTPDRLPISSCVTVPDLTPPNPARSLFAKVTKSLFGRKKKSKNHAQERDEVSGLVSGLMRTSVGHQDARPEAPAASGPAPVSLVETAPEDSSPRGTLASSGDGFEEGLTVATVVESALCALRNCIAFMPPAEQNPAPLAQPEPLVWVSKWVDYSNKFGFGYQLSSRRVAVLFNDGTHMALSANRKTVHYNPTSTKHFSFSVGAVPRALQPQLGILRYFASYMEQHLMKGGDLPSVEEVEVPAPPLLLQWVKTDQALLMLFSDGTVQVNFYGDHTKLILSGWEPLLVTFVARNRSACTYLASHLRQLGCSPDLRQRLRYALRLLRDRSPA
MAP2K3, sequence (P46734 whole entry): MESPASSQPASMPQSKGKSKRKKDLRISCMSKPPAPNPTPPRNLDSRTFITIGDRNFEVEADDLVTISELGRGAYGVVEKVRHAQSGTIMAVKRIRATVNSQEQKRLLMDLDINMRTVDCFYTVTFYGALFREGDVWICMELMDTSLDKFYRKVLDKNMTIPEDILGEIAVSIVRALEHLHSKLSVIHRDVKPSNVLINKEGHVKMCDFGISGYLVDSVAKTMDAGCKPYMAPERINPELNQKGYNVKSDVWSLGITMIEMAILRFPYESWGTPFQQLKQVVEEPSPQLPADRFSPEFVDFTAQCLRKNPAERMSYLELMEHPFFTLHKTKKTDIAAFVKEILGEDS
Wee1, sequence (P30291 whole entry): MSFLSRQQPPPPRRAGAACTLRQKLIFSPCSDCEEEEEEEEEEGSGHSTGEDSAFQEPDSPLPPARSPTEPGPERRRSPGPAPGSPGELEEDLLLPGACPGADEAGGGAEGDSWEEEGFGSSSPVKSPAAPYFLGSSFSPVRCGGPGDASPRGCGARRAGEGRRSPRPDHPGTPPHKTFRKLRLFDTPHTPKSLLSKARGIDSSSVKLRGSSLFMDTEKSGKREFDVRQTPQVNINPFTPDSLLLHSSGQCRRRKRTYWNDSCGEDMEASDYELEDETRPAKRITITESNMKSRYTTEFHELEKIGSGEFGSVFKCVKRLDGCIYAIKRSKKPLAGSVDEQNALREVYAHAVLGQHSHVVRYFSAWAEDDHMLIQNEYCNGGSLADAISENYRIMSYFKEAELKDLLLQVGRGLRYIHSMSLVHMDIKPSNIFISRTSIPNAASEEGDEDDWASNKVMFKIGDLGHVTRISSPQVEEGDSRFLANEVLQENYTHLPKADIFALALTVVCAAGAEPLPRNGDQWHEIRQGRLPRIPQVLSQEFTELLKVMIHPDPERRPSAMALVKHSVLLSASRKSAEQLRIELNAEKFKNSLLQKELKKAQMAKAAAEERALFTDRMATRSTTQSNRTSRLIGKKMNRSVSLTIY

CC1(C)CCC(c2ccc(Cl)cc2)=C(CN2CCN(c3ccc(C(=O)NS(=O)(=O)c4ccc(N[C@H](CCN5CCOCC5)CSc5ccccc5)c(S(=O)(=O)C(F)(F)F)c4)cc3)CC2)C1 [ABT-263]
Ki (Bcl-w): < 1 nM
drug-drug interaction (Bliss additivity) [1]: Synergistic interactions
activity in xenograft models [2]: pronounced oral activity
Cell Viability (% Inhibiton) (K562 cells; K562, Unt., ABT-263 0.003 uM): 0%
Cell Viability (% Inhibiton) (K562 cells; K562, Unt., ABT-263 0.01 uM): 0%
Cell Viability (% Inhibiton) (K562 cells; K562, Unt., ABT-263 0.03 uM): 0%
Cell Viability (% Inhibiton) (K562 cells; K562, Unt., ABT-263 0.1 uM): 0%
Cell Viability (% Inhibiton) (K562 cells; K562, Unt., ABT-263 0.3 uM): 0%
Cell Viability (% Inhibiton) (K562 cells; K562, Unt., ABT-263 1 uM): 5%
Cell Viability (% Inhibiton) (K562 cells; K562, siMcl1-1, ABT-263 0.003 uM): 0%
Cell Viability (% Inhibiton) (K562 cells; K562, siMcl1-1, ABT-263 0.01 uM): 0%
Cell Viability (% Inhibiton) (K562 cells; K562, siMcl1-1, ABT-263 0.03 uM): 0%
Cell Viability (% Inhibiton) (K562 cells; K562, siMcl1-1, ABT-263 0.1 uM): 0%
Cell Viability (% Inhibiton) (K562 cells; K562, siMcl1-1, ABT-263 0.3 uM): 0%
Cell Viability (% Inhibiton) (K562 cells; K562, siMcl1-1, ABT-263 1 uM): 0%
Cell Viability (% Inhibiton) (K562 cells; K562, siMcl1-2, ABT-263 0.003 uM): 0%
Cell Viability (% Inhibiton) (K562 cells; K562, siMcl1-2, ABT-263 0.01 uM): 0%
Cell Viability (% Inhibiton) (K562 cells; K562, siMcl1-2, ABT-263 0.03 uM): 0%
Cell Viability (% Inhibiton) (K562 cells; K562, siMcl1-2, ABT-263 0.1 uM): 2%
Cell Viability (% Inhibiton) (K562 cells; K562, siMcl1-2, ABT-263 0.3 uM): 11%
Cell Viability (% Inhibiton) (K562 cells; K562, siMcl1-2, ABT-263 1 uM): 21%
Cell Viability (% Inhibiton) (K562 cells; K562, siMcl1-3, ABT-263 0.003 uM): 0%
Cell Viability (% Inhibiton) (K562 cells; K562, siMcl1-3, ABT-263 0.01 uM): 0%
Cell Viability (% Inhibiton) (K562 cells; K562, siMcl1-3, ABT-263 0.03 uM): 0%
Cell Viability (% Inhibiton) (K562 cells; K562, siMcl1-3, ABT-263 0.1 uM): 0%
Cell Viability (% Inhibiton) (K562 cells; K562, siMcl1-3, ABT-263 0.3 uM): 13%
Cell Viability (% Inhibiton) (K562 cells; K562, siMcl1-3, ABT-263 1 uM): 32%
Cell Viability (% Inhibiton) (K562 cells; K562, siMcl1-4, ABT-263 0.003 uM): 0%
Cell Viability (% Inhibiton) (K562 cells; K562, siMcl1-4, ABT-263 0.01 uM): 3%
Cell Viability (% Inhibiton) (K562 cells; K562, siMcl1-4, ABT-263 0.03 uM): 22%
Cell Viability (% Inhibiton) (K562 cells; K562, siMcl1-4, ABT-263 0.1 uM): 60%
Cell Viability (% Inhibiton) (K562 cells; K562, siMcl1-4, ABT-263 0.3 uM): 75%
Cell Viability (% Inhibiton) (K562 cells; K562, siMcl1-4, ABT-263 1 uM): 80%
Cell Viability (% Inhibiton) (K562 cells; K562, siNT-1, ABT-263 0.003 uM): 0%
Cell Viability (% Inhibiton) (K562 cells; K562, siNT-1, ABT-263 0.01 uM): 0%
Cell Viability (% Inhibiton) (K562 cells; K562, siNT-1, ABT-263 0.03 uM): 0%
Cell Viability (% Inhibiton) (K562 cells; K562, siNT-1, ABT-263 0.1 uM): 0%
Cell Viability (% Inhibiton) (K562 cells; K562, siNT-1, ABT-263 0.3 uM): 2%
Cell Viability (% Inhibiton) (K562 cells; K562, siNT-1, ABT-263 1 uM): 10%

CC(C)(C)c1nc2c3cc[nH]c(=O)c3c3cc(F)ccc3c2[nH]1 [JAKi-I, JAK inhibitor I]
Ki (Wee1): > 3640 nM
Ki (MAP2K3): > 3100 nM
Ki (Syk CatDom): > 3260 nM
Ki (DDR1): > 2590 nM
Ki (MST1): 28 nM and 29.5 nM
constitutive STAT3/5 phosphorylation ([3]; 1 μM, 1 hr, serum-free, only in JAK2 V617F lines (SET-2, UKE-1, HEL), not K562, MV4;11): inhibited
phosphorylation of both STAT3 and STAT5 ([3]; UKE-1 (JAK2 V617F) cells, 10 min): rapid, dose-dependent inhibition
Ki (AMPK): 148 nM
Ki (cdk2): > 3240 nM
Ki (Akt1): > 5010 nM
Ki (Plk3): > 1550 nM
Ki (DYRK1B): > 2650 nM
